Patent US9809555B2, “Form of mefenpyr-diethyl, a process for its preparation and use of the same” (ROTAM AGROCHEM INTERNATIONAL COMPANY LIMITED, priority 2015, dated 2017)

What was measured:
[1] = Stability test: accelerated storage of formulations (CIPAC MT 46.3), mefenpyr-diethyl content by HPLC before and after aging; assay type: physicochemical; conditions: stored at 54° C. for 1 week
Protocol: The stability of the mefenpyr-diethyl in these compositions was determined by aging samples in heated ovens having the same atmosphere therein, and then comparing the mefenpyr-diethyl content before and after aging to determine relative percentage of hydrolysis (RPH). RPH was calculated by the following equation: […]
Mefenpyr-diethyl content was determined by assaying the compositions with high-pressure liquid chromatography (HPLC) using reverse phase columns and eluants.
Samples prepared in Examples 4, 5 and 6 were stored at 54° C. for 1 week. The procedures are followed according to CIPAC MT 46.3. The concentration of mefenpyr-diethyl was measured at the end of each storage time by HPLC.

[2] = General stability of mefenpyr-diethyl forms (hydrolysis in water or on storage); assay type: physicochemical; conditions: dissolved or dispersed in water, or during storage exposed to moisture, result in words
Description: It will generally undergo significant hydrolysis when dissolved or dispersed in water. Furthermore, hydrolysis can occur during storage, particularly where the compound is exposed to moisture. As a result, the stability of mefenpyr-diethyl is of great concern with respect to providing the commercially available formulations. Therefore, there is a need to provide a novel form mefenpyr-diethyl with increased stability in formulations.
Accordingly, in an embodiment, the invention provides a novel crystalline form of mefenpyr-diethyl, termed “crystalline modification I”, and a process for its preparation, as well as its use in agrochemical compositions. […] Accordingly, in an embodiment, the invention also provides compositions for controlling undesirable plant growth, such as weeds, comprising the crystalline modification I of mefenpyr-diethyl with sulfonylurea herbicides, as a mixture with auxiliaries and carriers. The use of the crystalline modification I of mefenpyr-diethyl with sulfonylurea herbicides in the control of undesired plant growth and a method for the same are also provided by embodiments of the invention.

[3] = Example 4 oil based suspension concentrate (OD) with iodosulfuron-methyl-sodium, 10 weight % mefenpyr-diethyl
[4] = Example 5 soluble granules (SG) with mesosulfuron-methyl, 7 weight % mefenpyr-diethyl
[5] = Example 6 water dispersible granules (WG) with iodosulfuron-methyl-sodium, 7 weight % mefenpyr-diethyl

Structure (SMILES) | RPH % (relative percentage of hydrolysis) [1, 3] [%] | RPH % (relative percentage of hydrolysis) [1, 4] [%] | RPH % (relative percentage of hydrolysis) [1, 5] [%] | stability (hydrolysis) ([2]; listed as mefenpyr-diethyl in amorphous state) | stability (hydrolysis) [2]
CCOC(=O)C1=NN(c2ccc(Cl)cc2Cl)C(C)(C(=O)OCC)C1 (racemic) [Amorphous mefenpyr-diethyl, diethyl (RS)-1-(2,4-dichlorophenyl)-5-methyl-2-pyrazoline-3,5-dicarboxylate] | 50 | 40 | 45 | highly unstable | –
CCOC(=O)C1=NN(c2ccc(Cl)cc2Cl)C(C)(C(=O)OCC)C1 (racemic) [Mefenpyr-diethyl, crystalline modification I] [diethyl (RS)-1-(2,4-dichlorophenyl)-5-methyl-2-pyrazoline-3,5-dicarboxylate] | 0 | 0 | 0 | – | increased stability relative to the amorphous form
